Assay: recombinant UMI read abundance after kanamycin selection (control-corrected) (log10(CPM+1)); higher = more efficient recombination; extreme values may be limits of the assay; sequences stand for … in AGTGCAGAGAAAATCGGCCAGTTTTCTCTGCCTGCAGTCCGCATGCCGTGGGACCCCTTGGGTTCTAACCTGTTGCCTAGATTTATGCAGCGGACTGCCTTTCTCCCAAAGTGATAAACCGG…AGGTTGGTTTCACT; site = the 11-nt donor
Procedure, shortened: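 Counts of recombinant UMIs were reported as log10(CPM+1). Before that, they were converted to CPM, averaged over replicates and scaled using control-derived factors. They came from PCR across the donor–target junction after Escherichia coli carrying the pair library and target plasmid was plated on IPTG (0.07 mM) plus kanamycin, or unselected, in two replicates each.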
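Also: IS621 bridge recombinase in Escherichia coli cells against a fixed T5 target plasmid.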

| Sequence | recombinant UMI read abundance (log10) |
| --- | --- |
| CCTAATACATGGACCGGTTTTCCCGGTAATCCGTATTTGGC (site CCTAATACTGG) | 0 |
| CCTAATACATGGACCGGTTTTCCCGGTAATCCGTATTTGGC (site CCTAATACTGT) | 0 |
| CCTAATACATGGACCGGTTTTCCCGGTAATCCGTATTTGGC (site CCTAATACTTC) | 0.00574 |
| CCTAATACATGGACCGGTTTTCCCGGTAATCCGTATTTGGC (site CCTAATCCTGC) | 0.00798 |
| CCTAATACATGGACCGGTTTTCCCGGTAATCCGTATTTGGC (site CCTAATGCTGC) | 0 |
| CCTAATACATGGACCGGTTTTCCCGGTAATCCGTATTTGGC (site CCTAATTCTGC) | 0 |
| CCTAATACATGGACCGGTTTTCCCGGTAATCCGTATTTGGC (site CCTACTACTGC) | 0.0125 |
| CCTAATACATGGACCGGTTTTCCCGGTAATCCGTATTTGGC (site CCTAGTACTGC) | 0 |
| CCTAATACATGGACCGGTTTTCCCGGTAATCCGTATTTGGC (site CCTATTACTGC) | 0 |
| CCTAATACATGGACCGGTTTTCCCGGTAATCCGTATTTGGC (site CCTCATACTGC) | 0 |
| CCTAATACATGGACCGGTTTTCCCGGTAATCCGTATTTGGC (site CCTGATACTGC) | 0.00582 |
| CCTAATACATGGACCGGTTTTCCCGGTAATCCGTATTTGGC (site CCTTATACTGC) | 0 |
| CCTAATACATGGACCGGTTTTCCCGGTAATCCGTATTTGGC (site CGTAATACTGC) | 0 |
| CCTAATACATGGACCGGTTTTCCCGGTAATCCGTATTTGGC (site CTTAATACTGC) | 0 |
| CCTAATACATGGACCGGTTTTCCCGGTAATCCGTATTTGGC (site GCTAATACTGC) | 0 |
| CCTAATACATGGACCGGTTTTCCCGGTAATCCGTATTTGGC (site TCTAATACTGC) | 0 |
| CCTAATTCATGGACCGGTTTTCCCGGTAATCCGTATTTGAT (site CCTAATTCTAT) | 0 |
| CCTACAGCATGGACCGGTTTTCCCGGTAATCCGTATTTGAT (site CCTAAAGCTAT) | 0 |
| CCTACAGCATGGACCGGTTTTCCCGGTAATCCGTATTTGAT (site CCTACAGCTAT) | 0.00631 |
| CCTACAGCATGGACCGGTTTTCCCGGTAATCCGTATTTGAT (site CCTAGAGCTAT) | 0 |
| CCTACAGCATGGACCGGTTTTCCCGGTAATCCGTATTTGAT (site CCTATAGCTAT) | 0.002 |
| CCTAGAGCATGGACCGGTTTTCCCGGTAATCCGTATTTGAT (site CCTAAAGCTAT) | 0 |
| CCTAGAGCATGGACCGGTTTTCCCGGTAATCCGTATTTGAT (site CCTACAGCTAT) | 0.00404 |
| CCTAGAGCATGGACCGGTTTTCCCGGTAATCCGTATTTGAT (site CCTAGAGCTAT) | 0.00624 |
| CCTAGAGCATGGACCGGTTTTCCCGGTAATCCGTATTTGAT (site CCTATAGCTAT) | 0 |

| Sequence | recombinant UMI read abundance (log10) |
| --- | --- |
| CCTAGCACATGGACCGGTTTTCCCGGTAATCCGTATTTGGT (site CCTAGCACTAC) | 0.00677 |
| CCTAGGTCATGGACCGGTTTTCCCGGTAATCCGTATTTGAA (site CCTAGGTCTTT) | 0.213 |
| CCTAGTACATGGACCGGTTTTCCCGGTAATCCGTATTTGGC (site CCTAATACTGC) | 0 |
| CCTAGTACATGGACCGGTTTTCCCGGTAATCCGTATTTGGC (site CCTACTACTGC) | 0 |
| CCTAGTACATGGACCGGTTTTCCCGGTAATCCGTATTTGGC (site CCTAGTACTGC) | 0 |
| CCTAGTACATGGACCGGTTTTCCCGGTAATCCGTATTTGGC (site CCTATTACTGC) | 0 |
| CCTAGTTCATGGACCGGTTTTCCCGGTAATCCGTATTTGAA (site CCTAGTTCTTT) | 0 |
| CCTATGTCATGGACCGGTTTTCCCGGTAATCCGTATTTGTC (site CCTATGTCTGA) | 0 |
| CCTCACTCATGGACCGGTTTTCCCGGTAATCCGTATTTGCA (site CCTCACTCTTG) | 0.399 |
| CCTCATACATGGACCGGTTTTCCCGGTAATCCGTATTTGGC (site CCTAATACTGC) | 0 |
| CCTCATACATGGACCGGTTTTCCCGGTAATCCGTATTTGGC (site CCTCATACTGC) | 0 |
| CCTCATACATGGACCGGTTTTCCCGGTAATCCGTATTTGGC (site CCTGATACTGC) | 0 |
| CCTCATACATGGACCGGTTTTCCCGGTAATCCGTATTTGGC (site CCTTATACTGC) | 0 |
| CCTCTCTCATGGACCGGTTTTCCCGGTAATCCGTATTTGTA (site CATCTCTCTTA) | 0.00925 |
| CCTCTCTCATGGACCGGTTTTCCCGGTAATCCGTATTTGTA (site CCTCTCTCTTA) | 0.53 |
| CCTCTCTCATGGACCGGTTTTCCCGGTAATCCGTATTTGTA (site CGTCTCTCTTA) | 0 |
| CCTCTCTCATGGACCGGTTTTCCCGGTAATCCGTATTTGTA (site CTTCTCTCTTA) | 0.0036 |
| CCTGACACATGGACCGGTTTTCCCGGTAATCCGTATTTGTC (site CCTGACACTGA) | 0 |
| CCTGCAGCATGGACCGGTTTTCCCGGTAATCCGTATTTGTG (site CCTGCAGCTCA) | 0.0206 |
| CCTGCCGCATGGACCGGTTTTCCCGGTAATCCGTATTTGCC (site CCTGCCGCTGG) | 0 |
| CCTGGTCCATGGACCGGTTTTCCCGGTAATCCGTATTTGCA (site CCAGGTCCTTG) | 0 |
| CCTGGTCCATGGACCGGTTTTCCCGGTAATCCGTATTTGCA (site CCCGGTCCTTG) | 0.00677 |
| CCTGGTCCATGGACCGGTTTTCCCGGTAATCCGTATTTGCA (site CCGGGTCCTTG) | 0 |
| CCTGGTCCATGGACCGGTTTTCCCGGTAATCCGTATTTGCA (site CCTGGTCCTTG) | 0 |
| CCTTAGGCATGGACCGGTTTTCCCGGTAATCCGTATTTGTT (site CCTTAGGCTAA) | 0.0132 |

| Sequence | recombinant UMI read abundance (log10) |
| --- | --- |
| CCTTATACATGGACCGGTTTTCCCGGTAATCCGTATTTGGC (site CCTAATACTGC) | 0 |
| CCTTATACATGGACCGGTTTTCCCGGTAATCCGTATTTGGC (site CCTCATACTGC) | 0.021 |
| CCTTATACATGGACCGGTTTTCCCGGTAATCCGTATTTGGC (site CCTGATACTGC) | 0 |
| CCTTATACATGGACCGGTTTTCCCGGTAATCCGTATTTGGC (site CCTTATACTGC) | 0 |
| CCTTGAACATGGACCGGTTTTCCCGGTAATCCGTATTTGCT (site CCTTGAACTAG) | 0 |
| CCTTGCCCATGGACCGGTTTTCCCGGTAATCCGTATTTGAT (site ACTTGCCCTAT) | 0.00442 |
| CCTTGCCCATGGACCGGTTTTCCCGGTAATCCGTATTTGAT (site CCTTGCCCTAT) | 0.00286 |
| CCTTGCCCATGGACCGGTTTTCCCGGTAATCCGTATTTGAT (site GCTTGCCCTAT) | 0.00408 |
| CCTTGCCCATGGACCGGTTTTCCCGGTAATCCGTATTTGAT (site TCTTGCCCTAT) | 0.00903 |
| CGAACATCATGGACCGGTTTTCCCGGTAATCCGTATTTGGA (site CGAACATCTTC) | 1.93 |
| CGAACGTCATGGACCGGTTTTCCCGGTAATCCGTATTTGCG (site CGAACGTCTCG) | 2.37 |
| CGAAGATCATGGACCGGTTTTCCCGGTAATCCGTATTTGCT (site CGAAGATCTAG) | 1.51 |
| CGAAGATCATGGACCGGTTTTCCCGGTAATCCGTATTTGCT (site CGATCATCTAG) | 0 |
| CGAAGGACATGGACCGGTTTTCCCGGTAATCCGTATTTGGT (site CGAAGGACTAC) | 1.65 |
| CGAAGTGCATGGACCGGTTTTCCCGGTAATCCGTATTTGCC (site CGAAGTGCTGG) | 0.751 |
| CGAAGTGCATGGACCGGTTTTCCCGGTAATCCGTATTTGTT (site CGAAGTGCTAA) | 2.57 |
| CGAATCCCATGGACCGGTTTTCCCGGTAATCCGTATTTGCA (site CGAATCCCTTG) | 1.55 |
| CGAATTACATGGACCGGTTTTCCCGGTAATCCGTATTTGGC (site CGAATTACTGC) | 1.14 |
| CGAATTCCATGGACCGGTTTTCCCGGTAATCCGTATTTGCG (site CGAATTCCTCG) | 0.935 |
| CGAATTCCATGGACCGGTTTTCCCGGTAATCCGTATTTGTT (site CGAATTCCTAA) | 0.99 |
| CGAATTCCATGGACCGGTTTTCCCGGTAATCCGTATTTGTT (site CGGAATCCTAA) | 0 |
| CGACACGCATGGACCGGTTTTCCCGGTAATCCGTATTTGTT (site CGACACGCTAA) | 2 |
| CGACCATCATGGACCGGTTTTCCCGGTAATCCGTATTTGGC (site CGACCATCTGC) | 3.07 |
| CGACCGTCATGGACCGGTTTTCCCGGTAATCCGTATTTGCA (site CGACCGTCTTG) | 3.11 |
| CGAGCAGCATGGACCGGTTTTCCCGGTAATCCGTATTTGCT (site CAAGCAGCTAG) | 1.13 |

— the supplement of paper PMC11208160
